Results taken from patent US20100210668A1, “COMPOSITION AND METHOD FOR TREATMENT OR PREVENTION OF BENIGN PROSTATIC HYPERPLASIA AND LOWER URINARY TRACT SYMPTOMS” (DONG-A PHARM. CO., LTD., priority 2007, published 2010).
Like-named read-outs stand apart in the source and are kept apart here.

Experiments:
PDE 5 = PDE 5 (Homo sapiens, UniProt O76074); assay: PDE 5 inhibition; type: biochemical
[1] = tested on: smooth muscle of rat bladder; assay: Relaxation of carbachol-contracted rat bladder tissue in organ bath; type: cell-based, Sprague-Dawley rat; details: for percentage of relaxation degree: L-NAME or Tamsulosin 10^−4M where combined
[2] = Pharmacokinetic characteristics in the body; type: in vivo
[3] = tested on: smooth muscle of rat prostate; assay: Relaxation of contracted rat prostatic tissue in organ bath, formula (I) and Silodosin; type: cell-based, Sprague-Dawley rat
Protocol: Male Sprague-Dawley rat with 300-400 g of body weight was sacrificed and the prostate was extracted and transferred to Krebs-Henseleit buffer kept cold. The dorsolateral lobes of prostatic tissue were transected to separate prostatic tissue gland with size of 2×10 mm (4 tissues per a rat). The separated tissues were transferred to organ bath where 95% O2, and 5% CO2 were emitted and Krebs-Henseleit buffer (37° C.) was contained, both ends of the tissue gland were fixed to the bath floor and force transducer connected to polygraph(Grass Instruments) respectively.
Each tissue was stabilized for 1 hour, and then treated by 10^−5M carbachol to induce the contraction of prostatic tissue.
In Table 3, data were obtained by using four (4) tissue glands were used for each concentration of the drug, and the numerical value is mean ± standard error of the percentage of contracting degree (inverse proportion to relaxation degree).

health men [4] = assay: Safety Test 1: vital signs in supine position, Tamsulosin combination; type: in vivo, human; details: for Diastolic blood pressure mean: the values are: Diastolic blood pressure mean
Protocol: (§1) The safety evaluation was performed by observing vital signs (diastolic blood pressure, pulse rate, body temperature), clinical laboratory testing, electrocardiogram, adverse reactions such as subjective symptom and objective symptom.

[5] = tested on: smooth muscle of rat prostate; assay: Relaxation of phenylephrine-contracted rat prostatic tissue in organ bath, formula (I) and Tamsulosin; type: cell-based, Sprague-Dawley rat
Protocol: Male Sprague-Dawley rat with 300-400 g of body weight was sacrificed and the prostate was extracted and transferred to Krebs-Henseleit buffer kept cold. The dorsolateral lobes of prostatic tissue were transected to separate prostatic tissue gland with size of 2×10 mm (4 tissues per a rat). The separated tissues were transferred to organ bath where 95% O2, and 5% CO2 were emitted and Krebs-Henseleit buffer (37° C.) was contained, both ends of the tissue gland were fixed to the bath floor and force transducer connected to polygraph(Grass Instruments) respectively. Each tissue was stabilized under 0.2 standard tension for 1 hour, and then treated by 1 μM of phenylephrine to induce the contraction of prostatic tissue. […] In Table 1, data were obtained by using four (4) tissue glands were used for each concentration of the drug, and the numerical value is mean ±standard error of the percentage of contracting degree (inverse proportion to percentage of relaxation degree).

[6] = Safety Test 2: pharmacokinetic parameters; type: in vivo; details: male, human, plasma
Protocol: as §1, with “symptom. In addition, the effect of drug-drug interaction on pharmacokinetics of the pyrazolopyrimidinone was observed.” for “symptom.”

[7] = Physicochemical properties (pKa, solubility)
health men [8] = assay: Safety Test 2: vital signs in supine position, Silodosin combination; type: in vivo, human; details: for Diastolic blood pressure mean: the values are: Diastolic blood pressure mean
Protocol: as §1

[9] = Safety Test 1: pharmacokinetics of the pyrazolopyrimidinone; type: in vivo; details: male, human, plasma
Protocol: as §1, with “symptom. In addition, the effect of drug interaction on pharmacokinetics of the pyrazolopyrimidinone was observed.” for “symptom.”

patients = details: cited from earlier work
[10] = Group B: placebo + the pyrazolopyrimidinone
[11] = Group D: administered with Tamsulosin

SMILES: CCCOc1ccc(S(=O)(=O)NCCC2CCCN2C)cc1-c1nc2c(CCC)nn(C)c2c(=O)[nH]1 (stereo not drawn) [Compound of formula (I), 5-[2-propyloxy-5-(1-methyl-2-pyrolidinylethylamidosulphonyl)phenyl]-1-methyl-propyl-1,6-dihydro-7H-pyrazolo (4,3-d)pyrimidin-7-one]
- inhibition of PDE 5 (PDE 5): inhibits PDE 5 strongly
- percentage of relaxation degree ([1]; Compound of formula (I) 10^−4M): 17.4 ± 3.7%
- percentage of relaxation degree ([1]; Compound of formula (I) 10^−4M, listed as pyrazolopyrimidinone of formula (I)): about 17.4%
- percentage of relaxation degree ([1]; Compound of formula (I) 10^−5M): 7.2 ± 1.6%
- percentage of relaxation degree ([1]; Compound of formula (I) 10^−6M): 2.0 ± 1.1%
- percentage of relaxation degree ([1]; Compound of formula (I) 10^−7M): 0.0 ± 0.0%
- percentage of relaxation degree ([1]; Compound of formula (I) 10^−8M, 10^−5M carbachol): 0.0 ± 0.0%
- concentration at which the relaxation effect began to be represented ([1]; administered alone): 10^−6 M
- half life in the body compared with the sildenafil-type citrate and vardenafil-type hydrochloride named ([2]; in the body): three times longer half life
- absorption ([2]; in vivo): rapid absorption
- bioavailability ([2]; in vivo): high bioavailability
- distribution volume in the body ([2]; in vivo): high distribution volume
- Contraction degree (%) ([3]; Compound of formula (I) 3 μM, Silodosin 0 nM): 92.6 ± 2.2%
- Contraction degree (%) ([3]; Compound of formula (I) 10 μM, Silodosin 0 nM): 77.1 ± 2.5%
- Contraction degree (%) ([3]; Compound of formula (I) 30 μM, Silodosin 0 nM): 62.2 ± 3.1%
- Pulse rate mean (health men [4]): 60.2
- Diastolic blood pressure mean (health men [4]): 61.6 mmHg
- Contraction degree (%) ([5]; Compound of formula (I) 3 μM, Tamsulosin 0 nM, 1 μM phenylephrine): 92.6 ± 2.2%
- Contraction degree (%) ([5]; Compound of formula (I) 10 μM, Tamsulosin 0 nM): 77.1 ± 2.5%
- Contraction degree (%) ([5]; Compound of formula (I) 30 μM, Tamsulosin 0 nM): 62.2 ± 3.1%
- AUC(0-inf) ([6]; Group A: placebo + the pyrazolopyrimidinone, read-out: AUCinf Ud): 4820 ± 1320 ng·h/mL
- Cmax ([6]; Group A: placebo + the pyrazolopyrimidinone, read-out: Cmax Ud): 627 ± 158 ng/mL
- Tmax ([6]; Group A: placebo + the pyrazolopyrimidinone, read-out: Tmax (h) Ud): 1.5 h
- AUC(0-inf) ([6]; Group C: Silodosin + the pyrazolopyrimidinone, read-out: AUCinf Ud): 4940 ± 1260 ng·h/mL
- Cmax ([6]; Group C: Silodosin + the pyrazolopyrimidinone, read-out: Cmax Ud): 660 ± 196 ng/mL
- Tmax ([6]; Group C: Silodosin + the pyrazolopyrimidinone, read-out: Tmax (h) Ud): 1.3 h
- pKa1 [7]: about 6.5
- pKa2 [7]: about 12.5
- solubility [7]: improved solubility
- solubility to acetic acid, methanol or chloroform ([7]; acetic acid, methanol or chloroform): high solubility
- solubility to water ([7]; water): low solubility
- Pulse rate mean (health men [8]): 61.4
- Diastolic blood pressure mean (health men [8]): 62.2 mmHg
- AUC(0-inf) [9, 10]: 4730 ± 1260 ng·h/mL
- Cmax [9, 10]: 617 ± 169 ng/mL
- Tmax [9, 10]: 1.5 h
- half-life [9, 10]: 9.7 ± 1.7 h
- AUC(0-inf) [9, 11]: 4910 ± 1260 ng·h/mL
- Cmax [9, 11]: 624 ± 200 ng/mL
- Tmax [9, 11]: 1.1 h
- half-life [9, 11]: 9.9 ± 2.3 h

SMILES: C[C@H](Cc1cc2c(c(C(N)=O)c1)N(CCCO)CC2)NCCOc1ccccc1OCC(F)(F)F [Silodosin, reference compound]
- Contraction degree (%) ([3]; Compound of formula (I) 0 μM, Silodosin 0.1 nM): 90.8 ± 1.4%
- Contraction degree (%) ([3]; Compound of formula (I) 0 μM, Silodosin 1 nM): 82.0 ± 1.7%
- Contraction degree (%) ([3]; Compound of formula (I) 0 μM, Silodosin 10 nM): 46.9 ± 1.6%
- AUC(0-inf) ([6]; AUCinf Silodosin, Group B: placebo + Silodosin): 110 ± 17.6 ng·h/mL
- AUC(0-inf) ([6]; AUCinf Silodosin, Group C: Silodosin + the pyrazolopyrimidinone): 132 ± 25.2 ng·h/mL
- Cmax ([6]; Cmax Silodosin, Group B: placebo + Silodosin): 31.1 ± 7.2 ng/mL
- Cmax ([6]; Cmax Silodosin, Group C: Silodosin + the pyrazolopyrimidinone): 35.2 ± 7.8 ng/mL
- Tmax ([6]; Tmax (h) Silodosin, Group B: placebo + Silodosin): 1.4 h
- Tmax ([6]; Tmax (h) Silodosin, Group C: Silodosin + the pyrazolopyrimidinone): 1.7 h
- Pulse rate mean (health men [8]): 64.2
- Diastolic blood pressure mean (health men [8]): 62.3 mmHg

SMILES: CCOc1ccccc1OCCN[C@H](C)Cc1ccc(OC)c(S(N)(=O)=O)c1 [Tamsulosin, (R)-5-(2-(2-(2-ethoxyphenoxy)ethylamino)propyl)-2-methoxy benzensulfonamide, reference compound]
- side effect in combination of PDE 5 inhibitors (patients; administered in combination of PDE 5 inhibitors): orthostatic hypotension
- Pulse rate mean (health men [4]): 57.7
- Diastolic blood pressure mean (health men [4]): 63 mmHg
- Contraction degree (%) ([5]; Compound of formula (I) 0 μM, Tamsulosin 0.25 nM): 90.8 ± 1.4%
- Contraction degree (%) ([5]; Compound of formula (I) 0 μM, Tamsulosin 1 nM): 78.8 ± 2.0%
- Contraction degree (%) ([5]; Compound of formula (I) 0 μM, Tamsulosin 4 nM): 43.6 ± 4.2%

SMILES: COc1cc2nc(N3CCN(C(=O)C4CCCO4)CC3)nc(N)c2cc1OC (stereo not drawn) [Terazocin]
- side effect in combination of PDE 5 inhibitors (patients; human, in vivo): orthostatic hypotension

SMILES: CCCc1nc(C)c2c(=O)[nH]c(-c3cc(S(=O)(=O)N4CCN(CC)CC4)ccc3OCC)nn12 [Vardenafil]
- blood pressure effect in combination of α-adrenergic receptor antagonist (patients; combination with α-adrenergic receptor antagonist): some patients shows low blood pressure
